# Measured values from ChEMBL document CHEMBL4680318, “(S)-Erypoegin K, an isoflavone isolated from Erythrina poeppigiana, is a novel inhibitor of topoisomerase IIα: Induction of G2 phase arrest in human gastric cancer cells” (Bioorg Med Chem, 2021).
# The source made the active and inactive calls. No cut-off for these calls is given here.
# Legend:
# KM12 = test: Growth inhibition of human KM12 cells measured after 48 hrs by sulforhodamine B assay; assay type: functional
# SF-268 = test: Growth inhibition of human SF-268 cells measured after 48 hrs by sulforhodamine B assay; assay type: functional
# PC-3 = test: Growth inhibition of human PC-3 cells measured after 48 hrs by sulforhodamine B assay; assay type: functional
# OVCAR-8 = test: Growth inhibition of human OVCAR-8 cells measured after 48 hrs by sulforhodamine B assay; assay type: functional
# HCT-116 = test: Growth inhibition of human HCT-116 cells measured after 48 hrs by sulforhodamine B assay; assay type: functional
# MKN-45 = test: Growth inhibition of human MKN-45 cells measured after 48 hrs by sulforhodamine B assay; assay type: functional
# [1] = Growth inhibition of human HBC4 cells measured after 48 hrs by sulforhodamine B assay; assay type: functional
# SF-295 = test: Growth inhibition of human SF-295 cells measured after 48 hrs by sulforhodamine B assay; assay type: functional
# U-251 = test: Growth inhibition of human U-251 cells measured after 48 hrs by sulforhodamine B assay; assay type: functional
# DMS-114 = test: Growth inhibition of human DMS-114 cells measured after 48 hrs by sulforhodamine B assay; assay type: functional
# MKN-74 = test: Growth inhibition of human MKN-74 cells measured after 48 hrs by sulforhodamine B assay; assay type: functional
# DU-145 = test: Growth inhibition of human DU-145 cells measured after 48 hrs by sulforhodamine B assay; assay type: functional
# MDA-MB-231 = test: Growth inhibition of human MDA-MB-231 cells measured after 48 hrs by sulforhodamine B assay; assay type: functional
# NCI-H23 = test: Growth inhibition of human NCI-H23 cells measured after 48 hrs by sulforhodamine B assay; assay type: functional
# NCI-H226 = test: Growth inhibition of human NCI-H226 cells measured after 48 hrs by sulforhodamine B assay; assay type: functional
# MCF7 = test: Growth inhibition of human MCF7 cells measured after 48 hrs by sulforhodamine B assay; assay type: functional
# NCI-H522 = test: Growth inhibition of human NCI-H522 cells measured after 48 hrs by sulforhodamine B assay; assay type: functional
# LOX IMVI = test: Growth inhibition of human LOX IMVI cells measured after 48 hrs by sulforhodamine B assay; assay type: functional
# OVCAR-3 = test: Growth inhibition of human OVCAR-3 cells measured after 48 hrs by sulforhodamine B assay; assay type: functional
# St-4 = test: Growth inhibition of human St-4 cells measured after 48 hrs by sulforhodamine B assay; assay type: functional
# SNB-75 = test: Growth inhibition of human SNB-75 cells measured after 48 hrs by sulforhodamine B assay; assay type: functional
# HT-29 = test: Growth inhibition of human HT-29 cells measured after 48 hrs by sulforhodamine B assay; assay type: functional
# MKN-7 = test: Growth inhibition of human MKN-7 cells measured after 48 hrs by sulforhodamine B assay; assay type: functional
# MKN-1 = test: Growth inhibition of human MKN-1 cells measured after 48 hrs by sulforhodamine B assay; assay type: functional
# [2] = Growth inhibition of human HBC5 cells measured after 48 hrs by sulforhodamine B assay; assay type: functional
# RXF 631 = test: Growth inhibition of human RXF 631 cells measured after 48 hrs by sulforhodamine B assay; assay type: functional
# SK-OV-3 = test: Growth inhibition of human SK-OV-3 cells measured after 48 hrs by sulforhodamine B assay; assay type: functional
# GCIY = test: Antitumor activity against human GCIY cells xenografted in KSN/Slc nude mouse assessed as reduction in tumor size at 40 mg/kg, ip administered twice a week for 4 weeks starting from day 4 post inoculation by vernier caliper method; assay type: functional, organism-based
# NCI-H460 = test: Growth inhibition of human NCI-H460 cells measured after 48 hrs by sulforhodamine B assay; assay type: functional
# ACHN = test: Growth inhibition of human ACHN cells measured after 48 hrs by sulforhodamine B assay; assay type: functional
# A549 = test: Growth inhibition of human A549 cells measured after 48 hrs by sulforhodamine B assay; assay type: functional
# DMS-273 = test: Growth inhibition of human DMS-273 cells measured after 48 hrs by sulforhodamine B assay; assay type: functional
# OVCAR-4 = test: Growth inhibition of human OVCAR-4 cells measured after 48 hrs by sulforhodamine B assay; assay type: functional
# HCC 2998 = test: Growth inhibition of human HCC 2998 cells measured after 48 hrs by sulforhodamine B assay; assay type: functional
# SNB-78 = test: Growth inhibition of human SNB-78 cells measured after 48 hrs by sulforhodamine B assay; assay type: functional
# [3] = Toxicity in KSN/Slc nude mouse xenografted with human GCIY cells assessed as effect on body weight at 40 mg/kg, ip administered twice a week for 4 weeks starting from day 4 post inoculation; assay type: organism-based; conditions: in vivo, 672 h
# HCT-15 = test: Growth inhibition of human HCT-15 cells measured after 48 hrs by sulforhodamine B assay; assay type: functional
# SF-539 = test: Growth inhibition of human SF-539 cells measured after 48 hrs by sulforhodamine B assay; assay type: functional
# MKN-28 = test: Growth inhibition of human MKN-28 cells measured after 48 hrs by sulforhodamine B assay; assay type: functional
# OVCAR-5 = test: Growth inhibition of human OVCAR-5 cells measured after 48 hrs by sulforhodamine B assay; assay type: functional
# [4] = Growth inhibition of human BSY1 cells measured after 48 hrs by sulforhodamine B assay; assay type: functional; conditions: BSY-1
# [5] = target: DNA topoisomerase 2-alpha (Homo sapiens) (UniProt P11388); test: Inhibition of human DNA topoisomerase 2alpha assessed as stabilization of DNA cleavage complex at 50 to 200 uM using supercoiled pSL1180 plasmid DNA as substrate measured after 30 mins by ethidium bromide staining-based UV imaging analysis; conditions: dose 50-200 µM
# Chain of DNA topoisomerase 2-alpha (Homo sapiens) (P11388 whole entry): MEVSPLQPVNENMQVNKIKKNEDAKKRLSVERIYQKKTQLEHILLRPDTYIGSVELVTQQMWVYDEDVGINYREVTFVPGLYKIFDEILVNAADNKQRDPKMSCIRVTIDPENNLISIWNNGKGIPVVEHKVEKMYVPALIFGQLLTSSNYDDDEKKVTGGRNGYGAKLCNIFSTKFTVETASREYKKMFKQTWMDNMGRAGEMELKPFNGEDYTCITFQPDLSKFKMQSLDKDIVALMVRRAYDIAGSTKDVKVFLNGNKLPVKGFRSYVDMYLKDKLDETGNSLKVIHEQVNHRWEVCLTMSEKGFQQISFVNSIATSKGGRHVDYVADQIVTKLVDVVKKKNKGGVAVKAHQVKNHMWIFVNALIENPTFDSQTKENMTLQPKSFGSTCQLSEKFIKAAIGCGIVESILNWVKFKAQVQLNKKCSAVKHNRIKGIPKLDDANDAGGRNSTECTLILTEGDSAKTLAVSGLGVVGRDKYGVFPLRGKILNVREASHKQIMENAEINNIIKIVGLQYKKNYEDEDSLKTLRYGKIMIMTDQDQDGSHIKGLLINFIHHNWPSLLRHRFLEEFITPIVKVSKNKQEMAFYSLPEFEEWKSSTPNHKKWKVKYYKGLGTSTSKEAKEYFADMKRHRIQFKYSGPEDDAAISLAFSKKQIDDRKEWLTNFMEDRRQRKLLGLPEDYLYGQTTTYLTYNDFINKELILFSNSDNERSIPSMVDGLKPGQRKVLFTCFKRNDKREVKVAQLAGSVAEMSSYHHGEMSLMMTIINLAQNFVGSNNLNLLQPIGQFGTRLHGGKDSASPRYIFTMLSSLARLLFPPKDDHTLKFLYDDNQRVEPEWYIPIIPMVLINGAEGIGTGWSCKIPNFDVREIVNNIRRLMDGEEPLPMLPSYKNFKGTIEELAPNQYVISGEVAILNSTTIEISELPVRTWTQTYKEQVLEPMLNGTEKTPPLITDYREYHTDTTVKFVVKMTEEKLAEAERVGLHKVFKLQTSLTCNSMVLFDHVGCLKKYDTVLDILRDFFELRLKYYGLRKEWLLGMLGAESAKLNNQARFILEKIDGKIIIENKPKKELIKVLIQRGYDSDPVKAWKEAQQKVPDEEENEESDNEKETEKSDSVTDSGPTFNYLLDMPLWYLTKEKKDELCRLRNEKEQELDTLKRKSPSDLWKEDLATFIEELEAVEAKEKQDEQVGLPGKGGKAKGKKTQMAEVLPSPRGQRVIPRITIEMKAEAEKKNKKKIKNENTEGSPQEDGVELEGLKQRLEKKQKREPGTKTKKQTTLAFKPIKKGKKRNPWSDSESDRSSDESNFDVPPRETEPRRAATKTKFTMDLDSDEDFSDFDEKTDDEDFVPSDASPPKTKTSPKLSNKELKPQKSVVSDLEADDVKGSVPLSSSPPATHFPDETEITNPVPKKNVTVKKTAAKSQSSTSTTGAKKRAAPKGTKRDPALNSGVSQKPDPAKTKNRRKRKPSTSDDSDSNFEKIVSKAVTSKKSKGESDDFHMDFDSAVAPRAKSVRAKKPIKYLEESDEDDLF
smiles,measurement,setting,value
CC(C)(O)[C@H]1Cc2c(cc(O)c3c(=O)c(-c4ccc(O)cc4)coc23)O1,GI50,KM12,> 100 µM
same,GI50,SF-268,> 100 µM
same,GI50,PC-3,91.2 µM
same,GI50,OVCAR-8,> 100 µM
same,GI50,HCT-116,> 100 µM
same,GI50,MKN-45,> 100 µM
same,GI50,[1],> 100 µM
same,GI50,SF-295,52.5 µM
same,GI50,U-251,> 100 µM
same,GI50,DMS-114,> 100 µM
same,GI50,MKN-74,> 100 µM
same,GI50,DU-145,> 100 µM
same,GI50,MDA-MB-231,45.7 µM
same,GI50,NCI-H23,> 100 µM
same,GI50,NCI-H226,> 100 µM
same,GI50,MCF7,89.1 µM
same,GI50,NCI-H522,47.9 µM
same,GI50,LOX IMVI,> 100 µM
same,GI50,OVCAR-3,> 100 µM
same,GI50,St-4,> 100 µM
same,GI50,SNB-75,16.6 µM
same,GI50,HT-29,> 100 µM
same,GI50,MKN-7,> 100 µM
same,GI50,MKN-1,> 100 µM
same,GI50,[2],> 100 µM
same,GI50,RXF 631,85.1 µM
same,GI50,SK-OV-3,26.9 µM
same,Activity,GCIY,inactive
same,GI50,NCI-H460,> 100 µM
same,GI50,ACHN,> 100 µM
same,GI50,A549,> 100 µM
same,GI50,DMS-273,> 100 µM
same,GI50,OVCAR-4,> 100 µM
same,GI50,HCC 2998,> 100 µM
same,GI50,SNB-78,> 100 µM
same,Activity,[3],Non-Toxic
same,GI50,HCT-15,> 100 µM
same,GI50,SF-539,53.7 µM
same,GI50,MKN-28,> 100 µM
same,GI50,OVCAR-5,> 100 µM
same,GI50,[4],> 100 µM
O=c1[nH]cc(F)c(=O)[nH]1 [FLUOROURACIL],Activity,GCIY,Active
same,Activity,[3],Non-Toxic
O=c1c(-c2ccc(O)cc2)coc2cc(O)cc(O)c12 [GENISTEIN],GI50,KM12,50.1 µM
same,GI50,SF-268,30.2 µM
same,GI50,OVCAR-8,35.5 µM
same,GI50,HCT-116,25.1 µM
same,GI50,MKN-45,32.4 µM
same,GI50,[1],43.7 µM
same,GI50,SF-295,28.8 µM
same,GI50,U-251,42.7 µM
same,GI50,DMS-114,49 µM
same,GI50,MKN-74,36.3 µM
same,GI50,MDA-MB-231,37.2 µM
same,GI50,NCI-H23,36.3 µM
same,GI50,NCI-H226,27.5 µM
same,GI50,MCF7,42.7 µM
same,GI50,NCI-H522,17.8 µM
same,GI50,LOX IMVI,18.2 µM
same,GI50,OVCAR-3,31.6 µM
same,GI50,St-4,46.8 µM
same,GI50,SNB-75,15.8 µM
same,GI50,HT-29,53.7 µM
same,GI50,MKN-7,30.2 µM
same,GI50,MKN-1,25.1 µM
same,GI50,[2],26.9 µM
same,GI50,RXF 631,40.7 µM
same,GI50,SK-OV-3,89.1 µM
same,GI50,NCI-H460,26.3 µM
same,GI50,ACHN,19.5 µM
same,GI50,A549,26.3 µM
same,GI50,DMS-273,21.9 µM
same,GI50,OVCAR-4,43.7 µM
same,GI50,HCC 2998,45.7 µM
same,GI50,SNB-78,38.9 µM
same,GI50,HCT-15,30.2 µM
same,GI50,SF-539,26.3 µM
same,GI50,MKN-28,39.8 µM
same,GI50,OVCAR-5,50.1 µM
same,GI50,[4],43.7 µM
COc1cc([C@@H]2c3cc4c(cc3[C@@H](O[C@@H]3O[C@@H]5CO[C@@H](C)O[C@H]5[C@H](O)[C@H]3O)[C@H]3COC(=O)[C@H]23)OCO4)cc(OC)c1O [ETOPOSIDE],GI50,KM12,14.1 µM
same,GI50,SF-268,5.37 µM
same,GI50,PC-3,> 100 µM
same,GI50,OVCAR-8,6.76 µM
same,GI50,HCT-116,14.8 µM
same,inhibition,[5],Active
same,GI50,MKN-45,7.94 µM
same,GI50,[1],16.6 µM
same,GI50,SF-295,2.75 µM
same,GI50,U-251,2.34 µM
same,GI50,DMS-114,2.88 µM
same,GI50,MKN-74,49 µM
same,GI50,DU-145,2.82 µM
same,GI50,MDA-MB-231,21.4 µM
same,GI50,NCI-H23,4.07 µM
same,GI50,NCI-H226,4.9 µM
same,GI50,MCF7,2.24 µM
same,GI50,NCI-H522,4.68 µM
same,GI50,LOX IMVI,3.47 µM
same,GI50,OVCAR-3,23.4 µM
same,GI50,St-4,20.9 µM
same,GI50,SNB-75,6.92 µM
same,GI50,HT-29,22.9 µM
same,GI50,MKN-7,25.7 µM
same,GI50,MKN-1,2.14 µM
same,GI50,[2],51.3 µM
same,GI50,RXF 631,12.3 µM
same,GI50,SK-OV-3,3.98 µM
same,GI50,NCI-H460,1.15 µM
same,GI50,ACHN,2.09 µM
same,GI50,A549,2 µM
same,GI50,DMS-273,1.74 µM
same,GI50,OVCAR-4,38.9 µM
same,GI50,HCC 2998,5.62 µM
same,GI50,SNB-78,44.7 µM
same,GI50,HCT-15,16.2 µM
same,GI50,SF-539,1.86 µM
same,GI50,MKN-28,21.4 µM
same,GI50,OVCAR-5,19.5 µM
same,GI50,[4],5.37 µM
